Assay results: ChEMBL document CHEMBL1201861, “Genomics of Drug Sensitity in Cancer screening data, Wellcome Trust Sanger Institute”

The compounds below were run on Ca9-22 (assay: cells). Conditions: Homo sapiens, Ca9-22.
Type: functional, cell-based, Homo sapiens
Description: SANGER: Inhibition of human Ca9-22 cell growth in a cell viability assay.

Compound	IC50 [µM]
Nc1ccn([C@@H]2O[C@H](CO)[C@@H](O)C2(F)F)c(=O)n1 [GEMCITABINE]	0.00154

These compounds were tested on DU-145 (assay: cells). Conditions: Homo sapiens, DU-145.
Type: functional, cell-based, Homo sapiens
Description: SANGER: Inhibition of human DU-145 cell growth in a cell viability assay.

Compound	IC50 [µM]
Nc1ccn([C@@H]2O[C@H](CO)[C@@H](O)C2(F)F)c(=O)n1 [GEMCITABINE]	0.00929

What follows are compounds tested on ECC4 (assay: cells). Conditions: Homo sapiens, ECC4.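 Further: growth inhibition of ECC4 cells, read out with a cell viability assay.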
Type: functional, cell-based, Homo sapiens
Description: SANGER: Inhibition of human ECC4 cell growth in a cell viability assay.

Compound	IC50 [µM]
Nc1ccn([C@@H]2O[C@H](CO)[C@@H](O)C2(F)F)c(=O)n1 [GEMCITABINE]	> 1.02

These compounds were tested on EFM-19 (assay: cells). Conditions: Homo sapiens, EFM-19.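 Further: growth inhibition of human EFM-19 cells, measured in a cell viability assay.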
Type: functional, cell-based, Homo sapiens
Description: SANGER: Inhibition of human EFM-19 cell growth in a cell viability assay.

Compound	IC50 [µM]
Nc1ccn([C@@H]2O[C@H](CO)[C@@H](O)C2(F)F)c(=O)n1 [GEMCITABINE]	> 1.02

The compounds below were run on GMS-10 (assay: cells). Conditions: Homo sapiens, GMS-10.
Type: functional, cell-based, Homo sapiens
Description: SANGER: Inhibition of human GMS-10 cell growth in a cell viability assay.

Compound	IC50 [µM]
Nc1ccn([C@@H]2O[C@H](CO)[C@@H](O)C2(F)F)c(=O)n1 [GEMCITABINE]	> 1.02

The compounds below were run on GP5d (assay: cells). Conditions: Homo sapiens, GP5d.
Type: functional, cell-based, Homo sapiens
Description: SANGER: Inhibition of human GP5d cell growth in a cell viability assay.

Compound	IC50 [µM]
Nc1ccn([C@@H]2O[C@H](CO)[C@@H](O)C2(F)F)c(=O)n1 [GEMCITABINE]	0.0287

These compounds were tested on HCC1599 (assay: cells). Conditions: Homo sapiens, HCC1599.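 Further: growth inhibition of HCC1599 cells, read out in a cell viability assay.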
Type: functional, cell-based, Homo sapiens
Description: SANGER: Inhibition of human HCC1599 cell growth in a cell viability assay.

Compound	IC50 [µM]
Nc1ccn([C@@H]2O[C@H](CO)[C@@H](O)C2(F)F)c(=O)n1 [GEMCITABINE]	0.0702

What follows are compounds tested on HCC1937 (assay: cells). Conditions: Homo sapiens, HCC1937.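 Further: growth inhibition measured with a cell viability read-out.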
Type: functional, cell-based, Homo sapiens
Description: SANGER: Inhibition of human HCC1937 cell growth in a cell viability assay.

Compound	IC50 [µM]
Nc1ccn([C@@H]2O[C@H](CO)[C@@H](O)C2(F)F)c(=O)n1 [GEMCITABINE]	> 1.02

The compounds below were run on HEC-1 (assay: cells). Conditions: Homo sapiens, HEC-1.
Type: functional, cell-based, Homo sapiens
Description: SANGER: Inhibition of human HEC-1 cell growth in a cell viability assay.

Compound	IC50 [µM]
Nc1ccn([C@@H]2O[C@H](CO)[C@@H](O)C2(F)F)c(=O)n1 [GEMCITABINE]	0.124

The compounds below were run on HGC-27 (assay: cells). Conditions: Homo sapiens, HGC-27.
Type: functional, cell-based, Homo sapiens
Description: SANGER: Inhibition of human HGC-27 cell growth in a cell viability assay.

Compound	IC50 [µM]
Nc1ccn([C@@H]2O[C@H](CO)[C@@H](O)C2(F)F)c(=O)n1 [GEMCITABINE]	0.0096

Each compound was assayed on HuP-T3 (assay: cells). Conditions: Homo sapiens, HuP-T3.
Type: functional, cell-based, Homo sapiens
Description: SANGER: Inhibition of human HuP-T3 cell growth in a cell viability assay.

Compound	IC50 [µM]
Nc1ccn([C@@H]2O[C@H](CO)[C@@H](O)C2(F)F)c(=O)n1 [GEMCITABINE]	0.146

These compounds were tested on KYSE-140 (assay: cells). Conditions: Homo sapiens, KYSE-140.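 Further: cell viability assay measuring growth inhibition in human KYSE-140 cells.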
Type: functional, cell-based, Homo sapiens
Description: SANGER: Inhibition of human KYSE-140 cell growth in a cell viability assay.

Compound	IC50 [µM]
Nc1ccn([C@@H]2O[C@H](CO)[C@@H](O)C2(F)F)c(=O)n1 [GEMCITABINE]	0.0279

Each compound was assayed on KYSE-450 (assay: cells). Conditions: Homo sapiens, KYSE-450.
Type: functional, cell-based, Homo sapiens
Description: SANGER: Inhibition of human KYSE-450 cell growth in a cell viability assay.

Compound	IC50 [µM]
Nc1ccn([C@@H]2O[C@H](CO)[C@@H](O)C2(F)F)c(=O)n1 [GEMCITABINE]	0.00632

What follows are compounds tested on LCLC-103H cell line (assay: cells). Conditions: Homo sapiens, LCLC-103H.
Type: functional, cell-based, Homo sapiens
Description: SANGER: Inhibition of human LCLC-103H cell growth in a cell viability assay.

Compound	IC50 [µM]
Nc1ccn([C@@H]2O[C@H](CO)[C@@H](O)C2(F)F)c(=O)n1 [GEMCITABINE]	0.0333

These compounds were tested on LK-2 (assay: cells). Conditions: Homo sapiens, LK-2.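 Further: growth inhibition of LK-2 cells, read out with a viability assay.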
Type: functional, cell-based, Homo sapiens
Description: SANGER: Inhibition of human LK-2 cell growth in a cell viability assay.

Compound	IC50 [µM]
Nc1ccn([C@@H]2O[C@H](CO)[C@@H](O)C2(F)F)c(=O)n1 [GEMCITABINE]	> 1.02

What follows are compounds tested on M14 (assay: cells). Conditions: Homo sapiens, M14.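 Further: growth inhibition of M14 cells, read out with a cell viability assay.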
Type: functional, cell-based, Homo sapiens
Description: SANGER: Inhibition of human M14 cell growth in a cell viability assay.

Compound	IC50 [µM]
Nc1ccn([C@@H]2O[C@H](CO)[C@@H](O)C2(F)F)c(=O)n1 [GEMCITABINE]	0.515

The compounds below were run on MDA-MB-134-VI (assay: cells). Conditions: Homo sapiens, MDA-MB-134-VI.
Type: functional, cell-based, Homo sapiens
Description: SANGER: Inhibition of human MDA-MB-134-VI cell growth in a cell viability assay.

Compound	IC50 [µM]
Nc1ccn([C@@H]2O[C@H](CO)[C@@H](O)C2(F)F)c(=O)n1 [GEMCITABINE]	> 1.02

The compounds below were run on MDA-MB-231 (assay: cells). Conditions: Homo sapiens, MDA-MB-231.
Type: functional, cell-based, Homo sapiens
Description: SANGER: Inhibition of human MDA-MB-231 cell growth in a cell viability assay.

Compound	IC50 [µM]
Nc1ccn([C@@H]2O[C@H](CO)[C@@H](O)C2(F)F)c(=O)n1 [GEMCITABINE]	0.0278

These compounds were tested on MG-63 (assay: cells). Conditions: Homo sapiens, MG-63.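 Further: growth inhibition of human MG-63 cells, read out with a cell viability assay.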
Type: functional, cell-based, Homo sapiens
Description: SANGER: Inhibition of human MG-63 cell growth in a cell viability assay.

Compound	IC50 [µM]
Nc1ccn([C@@H]2O[C@H](CO)[C@@H](O)C2(F)F)c(=O)n1 [GEMCITABINE]	0.00133

These compounds were tested on MIA PaCa-2 (assay: cells). Conditions: Homo sapiens, MIA PaCa-2.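 Further: growth inhibition of MIA PaCa-2 cells, read out with a cell viability assay.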
Type: functional, cell-based, Homo sapiens
Description: SANGER: Inhibition of human MIA-PaCa-2 cell growth in a cell viability assay.

Compound	IC50 [µM]
Nc1ccn([C@@H]2O[C@H](CO)[C@@H](O)C2(F)F)c(=O)n1 [GEMCITABINE]	0.0234

Each compound was assayed on MONO-MAC-6 (assay: cells). Conditions: Homo sapiens, MONO-MAC-6.
Type: functional, cell-based, Homo sapiens
Description: SANGER: Inhibition of human MONO-MAC-6 cell growth in a cell viability assay.

Compound	IC50 [µM]
Nc1ccn([C@@H]2O[C@H](CO)[C@@H](O)C2(F)F)c(=O)n1 [GEMCITABINE]	0.0248

These compounds were tested on MeWo (assay: cells). Conditions: Homo sapiens, MeWo.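 Further: growth inhibition of MeWo cells, determined by a cell viability readout.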
Type: functional, cell-based, Homo sapiens
Description: SANGER: Inhibition of human Mewo cell growth in a cell viability assay.

Compound	IC50 [µM]
Nc1ccn([C@@H]2O[C@H](CO)[C@@H](O)C2(F)F)c(=O)n1 [GEMCITABINE]	> 1.02

The compounds below were run on NCI-H1522 (assay: cells). Conditions: Homo sapiens, NCI-H1522.
Type: functional, cell-based, Homo sapiens
Description: SANGER: Inhibition of human NCI-H1522 cell growth in a cell viability assay.

Compound	IC50 [µM]
Nc1ccn([C@@H]2O[C@H](CO)[C@@H](O)C2(F)F)c(=O)n1 [GEMCITABINE]	> 1.02

The compounds below were run on NCI-H1623 (assay: cells). Conditions: Homo sapiens, NCI-H1623.
Type: functional, cell-based, Homo sapiens
Description: SANGER: Inhibition of human NCI-H1623 cell growth in a cell viability assay.

Compound	IC50 [µM]
Nc1ccn([C@@H]2O[C@H](CO)[C@@H](O)C2(F)F)c(=O)n1 [GEMCITABINE]	0.187

Each compound was assayed on NCI-H1693 (assay: cells). Conditions: Homo sapiens, NCI-H1693.
Type: functional, cell-based, Homo sapiens
Description: SANGER: Inhibition of human NCI-H1693 cell growth in a cell viability assay.

Compound	IC50 [µM]
Nc1ccn([C@@H]2O[C@H](CO)[C@@H](O)C2(F)F)c(=O)n1 [GEMCITABINE]	0.0461

The compounds below were run on NCI-H1793 (assay: cells). Conditions: Homo sapiens, NCI-H1793.
Type: functional, cell-based, Homo sapiens
Description: SANGER: Inhibition of human NCI-H1793 cell growth in a cell viability assay.

Compound	IC50 [µM]
Nc1ccn([C@@H]2O[C@H](CO)[C@@H](O)C2(F)F)c(=O)n1 [GEMCITABINE]	0.224

These compounds were tested on OPM-2 (assay: cells). Conditions: Homo sapiens, OPM-2.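 Further: growth of OPM-2 cells measured with a viability assay, IC50 for suppression of proliferation.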
Type: functional, cell-based, Homo sapiens
Description: SANGER: Inhibition of human OPM-2 cell growth in a cell viability assay.

Compound	IC50 [µM]
Nc1ccn([C@@H]2O[C@H](CO)[C@@H](O)C2(F)F)c(=O)n1 [GEMCITABINE]	> 1.02

These compounds were tested on PA-1 (assay: cells). Conditions: Homo sapiens, PA-1.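 Further: IC50 for suppression of PA-1 cell proliferation, determined with a cell viability read-out.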
Type: functional, cell-based, Homo sapiens
Description: SANGER: Inhibition of human PA-1 cell growth in a cell viability assay.

Compound	IC50 [µM]
Nc1ccn([C@@H]2O[C@H](CO)[C@@H](O)C2(F)F)c(=O)n1 [GEMCITABINE]	0.00899

Each compound was assayed on SIMA (assay: cells). Conditions: Homo sapiens, SIMA.
Type: functional, cell-based, Homo sapiens
Description: SANGER: Inhibition of human SIMA cell growth in a cell viability assay.

Compound	IC50 [µM]
Nc1ccn([C@@H]2O[C@H](CO)[C@@H](O)C2(F)F)c(=O)n1 [GEMCITABINE]	0.161

The compounds below were run on SJRH30 (assay: cells). Conditions: Homo sapiens, SJRH30.
Type: functional, cell-based, Homo sapiens
Description: SANGER: Inhibition of human SJRH30 cell growth in a cell viability assay.

Compound	IC50 [µM]
Nc1ccn([C@@H]2O[C@H](CO)[C@@H](O)C2(F)F)c(=O)n1 [GEMCITABINE]	0.106

The compounds below were run on SK-HEP1 (assay: cells). Conditions: Homo sapiens, SK-HEP1.
Type: functional, cell-based, Homo sapiens, SK-HEP-1
Description: SANGER: Inhibition of human SK-HEP-1 cell growth in a cell viability assay.

Compound	IC50 [µM]
Nc1ccn([C@@H]2O[C@H](CO)[C@@H](O)C2(F)F)c(=O)n1 [GEMCITABINE]	0.00614

These compounds were tested on SK-MEL-24 (assay: cells). Conditions: Homo sapiens, SK-MEL-24.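 Further: growth inhibition read out by a cell viability assay.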
Type: functional, cell-based, Homo sapiens
Description: SANGER: Inhibition of human SK-MEL-24 cell growth in a cell viability assay.

Compound	IC50 [µM]
Nc1ccn([C@@H]2O[C@H](CO)[C@@H](O)C2(F)F)c(=O)n1 [GEMCITABINE]	> 1.02

The compounds below were run on SK-MEL-30 (assay: cells). Conditions: Homo sapiens, SK-MEL-30.
Type: functional, cell-based, Homo sapiens
Description: SANGER: Inhibition of human SK-MEL-30 cell growth in a cell viability assay.

Compound	IC50 [µM]
Nc1ccn([C@@H]2O[C@H](CO)[C@@H](O)C2(F)F)c(=O)n1 [GEMCITABINE]	< 0.004

What follows are compounds tested on SW780 (assay: cells). Conditions: Homo sapiens, SW780.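 Further: growth inhibition of the cells, read out with a cell viability assay.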
Type: functional, cell-based, Homo sapiens
Description: SANGER: Inhibition of human SW780 cell growth in a cell viability assay.

Compound	IC50 [µM]
Nc1ccn([C@@H]2O[C@H](CO)[C@@H](O)C2(F)F)c(=O)n1 [GEMCITABINE]	> 1.02

These compounds were tested on CWR22R (assay: cells). Conditions: Homo sapiens, 22Rv1.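 Further: growth inhibition of 22Rv1 cells, read out with a cell viability assay.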
Type: functional, cell-based, Homo sapiens
Description: SANGER: Inhibition of human 22RV1 cell growth in a cell viability assay.

Compound	IC50 [µM]
Nc1ccn([C@@H]2O[C@H](CO)[C@@H](O)C2(F)F)c(=O)n1 [GEMCITABINE]	0.0965

The compounds below were run on 769-P (assay: cells). Conditions: Homo sapiens, 769-P.
Type: functional, cell-based, Homo sapiens
Description: SANGER: Inhibition of human 769-P cell growth in a cell viability assay.

Compound	IC50 [µM]
Nc1ccn([C@@H]2O[C@H](CO)[C@@H](O)C2(F)F)c(=O)n1 [GEMCITABINE]	< 0.004

The compounds below were run on A673 (assay: cells). Conditions: Homo sapiens, A673.
Type: functional, cell-based, Homo sapiens
Description: SANGER: Inhibition of human A673 cell growth in a cell viability assay.

Compound	IC50 [µM]
Nc1ccn([C@@H]2O[C@H](CO)[C@@H](O)C2(F)F)c(=O)n1 [GEMCITABINE]	0.0342

Each compound was assayed on BL-41 (assay: cells). Conditions: Homo sapiens, BL-41.
Type: functional, cell-based, Homo sapiens
Description: SANGER: Inhibition of human BL-41 cell growth in a cell viability assay.

Compound	IC50 [µM]
Nc1ccn([C@@H]2O[C@H](CO)[C@@H](O)C2(F)F)c(=O)n1 [GEMCITABINE]	0.0144

Each compound was assayed on BL-70 (assay: SANGER: Inhibition of human BL-70 cell growth in a cell viability assay.). Conditions: Homo sapiens, BL-70.
Type: functional, cell-based

Compound	IC50 [µM]
Nc1ccn([C@@H]2O[C@H](CO)[C@@H](O)C2(F)F)c(=O)n1 [GEMCITABINE]	0.111

What follows are compounds tested on CAL-27 (assay: cells). Conditions: Homo sapiens, CAL-27.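 Further: Viability-based readout, IC50 reflecting inhibition of CAL-27 cell growth.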
Type: functional, cell-based, Homo sapiens
Description: SANGER: Inhibition of human CAL-27 cell growth in a cell viability assay.

Compound	IC50 [µM]
Nc1ccn([C@@H]2O[C@H](CO)[C@@H](O)C2(F)F)c(=O)n1 [GEMCITABINE]	0.0352

The compounds below were run on CAL-39 (assay: cells). Conditions: Homo sapiens, CAL-39.
Type: functional, cell-based, Homo sapiens
Description: SANGER: Inhibition of human CAL-39 cell growth in a cell viability assay.

Compound	IC50 [µM]
Nc1ccn([C@@H]2O[C@H](CO)[C@@H](O)C2(F)F)c(=O)n1 [GEMCITABINE]	> 1.02

These compounds were tested on CAL-51 (assay: cells). Conditions: Homo sapiens, CAL-51.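 Further: human CAL-51 cell line, growth inhibition read out via a cell viability assay.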
Type: functional, cell-based, Homo sapiens
Description: SANGER: Inhibition of human CAL-51 cell growth in a cell viability assay.

Compound	IC50 [µM]
Nc1ccn([C@@H]2O[C@H](CO)[C@@H](O)C2(F)F)c(=O)n1 [GEMCITABINE]	0.191

What follows are compounds tested on CAL-62 (assay: cells). Conditions: Homo sapiens, CAL-62.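 Further: growth inhibition of CAL-62 cells, read out with a cell viability assay.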
Type: functional, cell-based, Homo sapiens
Description: SANGER: Inhibition of human CAL-62 cell growth in a cell viability assay.

Compound	IC50 [µM]
Nc1ccn([C@@H]2O[C@H](CO)[C@@H](O)C2(F)F)c(=O)n1 [GEMCITABINE]	0.00122

These compounds were tested on TE-15 (assay: cells). Conditions: Homo sapiens, TE-15.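 Further: cell viability readout of growth inhibition in TE-15 cells.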
Type: functional, cell-based, Homo sapiens
Description: SANGER: Inhibition of human TE-15 cell growth in a cell viability assay.

Compound	IC50 [µM]
Nc1ccn([C@@H]2O[C@H](CO)[C@@H](O)C2(F)F)c(=O)n1 [GEMCITABINE]	< 0.004

Each compound was assayed on WM-115 (assay: cells). Conditions: Homo sapiens, WM-115.
Type: functional, cell-based, Homo sapiens
Description: SANGER: Inhibition of human WM-115 cell growth in a cell viability assay.

Compound	IC50 [µM]
Nc1ccn([C@@H]2O[C@H](CO)[C@@H](O)C2(F)F)c(=O)n1 [GEMCITABINE]	> 1.02

What follows are compounds tested on CESS (assay: SANGER: Inhibition of human CESS cell growth in a cell viability assay.). Conditions: Homo sapiens, CESS.
Type: functional, cell-based

Compound	IC50 [µM]
Nc1ccn([C@@H]2O[C@H](CO)[C@@H](O)C2(F)F)c(=O)n1 [GEMCITABINE]	0.0232

These compounds were tested on CHP-212 (assay: cells). Conditions: Homo sapiens, CHP-212.
Type: functional, cell-based, Homo sapiens
Description: SANGER: Inhibition of human CHP-212 cell growth in a cell viability assay.

Compound	IC50 [µM]
Nc1ccn([C@@H]2O[C@H](CO)[C@@H](O)C2(F)F)c(=O)n1 [GEMCITABINE]	0.00275
